In patent US9579329B2, “Use of estetrol as emergency contraceptive” (Estetra S.P.R.L., priority 2011, dated 2017):
Read-outs that look alike come from different tables or passages of the source.

Columns and labels:
[1] = test system: ovulation in four-day cyclic rats; experiment: Anti-ovulatory effect in four-day cyclic rats, oral twice daily for four days, ova per oviduct counted; assay type: in vivo, rat; conditions: for ED50: Rattus norvegicus, po, 96 h, four-day cyclic rats; for rats with ovulation inhibited: Days 1-4, 8 rats per group
Experimental: Vaginal smears from female rats were obtained daily for two weeks prior to the start of treatment to identify four-day cycling rats. All treatments were administered orally twice daily at approximately 6:30 am and 4:30 pm for four consecutive days (Days 1-4), starting on the day of estrus. One day after the final dose (Day 5), the rats were euthanized by CO2 asphyxiation at approximately 1 pm, and the number of ova per oviduct was counted by visualization under a dissecting microscope and recorded. In one study, animals (8 per group) were treated with E4 (0.03; 0.1; 0.3; 1.0 or 3.0 mg/kg) or ethinylestradiol (EE) (0.0003; 0.001; 0.003, 0.01 or 0.03 mg/kg). The control group was given the vehicle only. In another study, the antiovulatory activity of E4 was evaluated relative to that of estradiol (E2). Animals (8 per group) were treated with E4, E2 or vehicle (control group).

[2] = test system: estrogen-sensitive parameters related to hepatic and bone metabolism; experiment: Pharmacodynamics: estrogen-sensitive hepatic and bone metabolism parameters and endometrial stimulation in postmenopausal women; assay type: in vivo, human; conditions: single oral dose
Experimental: (§1) In the present example the safety, tolerability, pharmacokinetics and pharmacodynamics of a single escalating dose of E4 (0.1, 1, 10 and 100 mg) was evaluated in healthy postmenopausal women.
(§2) A double-blind, randomized, placebo-controlled, single rising dose study (0.1, 1, 10 and 100 mg of E4) was performed in healthy postmenopausal women. 32 healthy postmenopausal female volunteers between 53 and 69 years of age were enrolled. Menopause was defined as ≧12 months amenorrhea or 6 months amenorrhea with serum FSH levels≧40 IU/l and serum E2<73 pmol/l. […] A total of 8 subjects were assigned to each dose group; six subjects received active treatment and two subjects received placebo.
Some fast reacting, estrogen-sensitive parameters related to hepatic and bone metabolism were determined in the 100-mg dose group only. […] Interpretation of the pharmacodynamic data must be made with care taking into consideration the small number of subjects and the single dose administration.

FSH levels = experiment: Pharmacodynamics: FSH levels after a single oral dose in postmenopausal women; assay type: in vivo, human; conditions: 100 mg dose group
Experimental: as §1, §2

[3] = Pharmacokinetics of a single oral dose in healthy postmenopausal women; assay type: in vivo, human; conditions: for half-life: female, human, plasma, po, postmenopausal women
Experimental: as §1, §2
Plasma concentration profiles could not be determined in subjects of the 0.1 mg group.

[4] = test system: healthy postmenopausal women; experiment: Safety and tolerability of a single rising oral dose in healthy postmenopausal women; assay type: in vivo, human; conditions: for safety and tolerability after single administration: dose up to 100 mg, humans
Experimental: as §1, §2

mated female Wistar rats = experiment: Effects of E4 on the pregnancy of the Wistar rat, oral gavage Day 6 to 17 of gestation; assay type: in vivo; conditions: for females observed to be hunched towards the end of gestation: seven rats per group
Experimental: In one study, groups of seven mated female rats were given E4 orally, by gavage, at dose levels of 30, 60 or 90 mg/kg/day from Day 6 to 17 of gestation inclusive. A similar group of seven rats was given the vehicle, 0.5% w/v carboxymethylcellulose, over the same period to act as controls. On Day 20 of gestation, the females were examined.
In another study, using the same protocol as the study above, groups of seven mated female rats were given E4 at dose levels of 0.1, 0.3, 1, 3 and 10 mg/kg/day or vehicle (controls).

[5] = test system: adult female cynomolgus monkeys; experiment: Maximum tolerated dose (MTD) study in adult female cynomolgus monkeys; assay type: in vivo
Experimental: A maximum tolerated dose (MTD) study was performed in adult female cynomolgus monkeys.
Three control animals were treated orally with vehicle, and four other animals were treated orally with E4 as a suspension in vehicle at single increasing doses of 1, 10, 100 or 1000 mg/kg on days 1, 3, 6 and 14 respectively.

plasma LH levels = experiment: Pharmacodynamics: plasma LH levels after a single oral dose in postmenopausal women; assay type: in vivo, human
Experimental: as §1, §2
The maximum mean suppression was 48% at 4 hours after dosing. A second LH trough of 45% is seen at 12 hours after dosing, synchronous with the mean E4 levels.

[6] = test system: ovulation and pregnancy in fertile female rabbits; experiment: Prevention of pregnancy in rabbits, twice daily dosing for 14 days starting four days before mating; assay type: in vivo, rabbit
Experimental: Eighteen proven fertile female rabbits, 3 per group were dosed twice daily at approximately 12 hour intervals for 14 days starting four days before mating: Group 1: vehicle control (ASV: 0.9% sodium chloride, 0.4% polysorbate 80, 0.5% carboxymethylcellulose and 0.9% benzyl alcohol in distilled or deionised water, 1 ml/kg), Group 2: 0.01 mg/kg E4 in ASV, 1 ml/kg, Group 3: 0.03 mg/kg E4 in ASV, 1 ml/kg, Group 4: 0.1 mg/kg E4 in ASV, 1 ml/kg, Group 5: 0.3 mg/kg E4 in ASV, 1 ml/kg and Group 6: 1.0 mg/kg E4 in ASV, 1 ml/kg. Doses were determined by body weights taken the first day of dosing and were adjusted according to weights obtained one week later. Each female rabbit was bred with two proven fertile male rabbits after four days of dosing. The females were necropsied ten days later and the number of pregnancies were determined.

[7] = another study, E4 vs E2, p.o., read-out: antiovulatory ED50
[8] = 30, 60 or 90 mg/kg/day oral gavage, Day 6 to 17 of gestation
[9] = all dose groups 30, 60, 90 mg/kg/day
[10] = single increasing oral doses 1-1000 mg/kg
[11] = 0.01 mg/kg twice daily, one female failed to breed
[12] = 0.03 mg/kg twice daily, 3 animals per group
[13] = 1.0 mg/kg twice daily, 3 animals per group

SMILES: C[C@]12CC[C@@H]3c4ccc(O)cc4CC[C@H]3[C@@H]1CC[C@@H]2O [E2, estradiol, reference compound]
- ED50 [1, 7]: 0.03 to 0.1 mg/kg

SMILES: C#C[C@]1(O)CC[C@H]2[C@@H]3CCc4cc(O)ccc4[C@H]3CC[C@@]21C [EE, ethinylestradiol, reference compound]
- ED50 ([1]; study E4 vs EE, p.o. twice daily, read-out: calculated antiovulatory ED50): 0.01 mg/kg

SMILES: C[C@]12CC[C@@H]3c4ccc(O)cc4CC[C@H]3[C@@H]1[C@@H](O)[C@@H](O)[C@@H]2O [E4, 1,3,5(10)-estratrien-3, 15α, 16α, 17β-tetrol]
- endometrial stimulation (withdrawal bleeding after progestogen post treatment) [2]: No significant endometrial stimulation
- maximum suppression of FSH (FSH levels; 48 hrs after dosing): 41%
- inhibition of FSH levels (FSH levels; up to 168 hours (1 week) after dosing): profound and sustained inhibition
- oral bioabsorption ([3]; dose range tested): high and dose-proportional
- half-life ([3]; single oral dose, read-out: terminal half life (converted)): 28 h
- half-life ([3]; single oral dose, read-out: terminal half life, ranges): 18 to 60 h
- Cmax dose proportionality ([3]; range from 1 to 100 mg oral): proportional
- AUC0-∞ dose proportionality ([3]; range from 10 to 100 mg oral): proportional to the oral dose
- absorption ([3]; single oral dose): extremely fast
- terminal half life and fractional clearance, effect of dose level ([3]; single oral dose): not affected by dose level
- inter-subject variability of pharmacokinetic data ([3]; single oral dose, 1-100 mg): very low
- Somnolence, E = number of adverse events ([4]; 0.1 mg single oral dose, N = 6): 1
- Somnolence, n = number of subjects with adverse events ([4]; 0.1 mg single oral dose, N = 6): 1
- Somnolence, percentage of subjects with adverse events ([4]; 0.1 mg single oral dose, N = 6): 16.7%
- Somnolence, E = number of adverse events ([4]; 1 mg single oral dose, N = 6): 1
- Somnolence, n = number of subjects with adverse events ([4]; 1 mg single oral dose, N = 6): 1
- Somnolence, percentage of subjects with adverse events ([4]; 1 mg single oral dose, N = 6): 16.7%
- number of AEs ([4]; 10 mg group): just one AE
- Myalgia, E = number of adverse events ([4]; 10 mg single oral dose, N = 6): 1
- Myalgia, n = number of subjects with adverse events ([4]; 10 mg single oral dose, N = 6): 1
- Myalgia, percentage of subjects with adverse events ([4]; 10 mg single oral dose, N = 6): 16.7%
- number and nature of AEs versus placebo ([4]; 0.1, 1.0 and 10 mg): similar
- number of AEs (all AEs and related AEs) ([4]; 100 mg): highest
- Diarrhoea NOS, E = number of adverse events ([4]; 100 mg single oral dose, N = 6): 2
- Diarrhoea NOS, n = number of subjects with adverse events ([4]; 100 mg single oral dose, N = 6): 2
- Diarrhoea NOS, percentage of subjects with adverse events ([4]; 100 mg single oral dose, N = 6): 33.3%
- Myalgia, E = number of adverse events ([4]; 100 mg single oral dose, N = 6): 2
- Myalgia, n = number of subjects with adverse events ([4]; 100 mg single oral dose, N = 6): 2
- Myalgia, percentage of subjects with adverse events ([4]; 100 mg single oral dose, N = 6): 33.3%
- Somnolence, E = number of adverse events ([4]; 100 mg single oral dose, N = 6): 2
- Somnolence, n = number of subjects with adverse events ([4]; 100 mg single oral dose, N = 6): 2
- Somnolence, percentage of subjects with adverse events ([4]; 100 mg single oral dose, N = 6): 33.3%
- safety and tolerability after single administration [4]: In conclusion, the results of this study showed that E4 after single administration at a dose up to 100 mg is safe and well tolerated.
- safety and tolerability after single administration ([4]; listed as estetrol): safe and well tolerated
- notable adverse event ([4]; one subject of the 100 mg group, not serious, mild, probably related): allergic reaction (urticaria)
- severe or serious adverse events ([4]; single doses 0.1, 1, 10 and 100 mg): No severe or serious adverse events
- changes in ECGs, laboratory tests or vital signs ([4]; single doses 0.1-100 mg): no notable changes
- females observed to be hunched towards the end of gestation (mated female Wistar rats; 3 mg/kg/day): one female
- mean body weight during treatment period (mated female Wistar rats; 10 mg/kg/day): overall loss in mean body weight
- mean food intake (mated female Wistar rats; 10 mg/kg/day): reduced mean food intake
- females observed to be hunched towards the end of gestation (mated female Wistar rats; 10 mg/kg/day): Three females
- mean body weight gains over treatment period (mated female Wistar rats; 0.1, 0.3, 1 and 3 mg/kg/day): less than the controls
- mean gravid uterus weight (mated female Wistar rats; 0.3, 1 and 3 mg/kg/day): reduction in mean gravid uterus weight
- mean food intake over treatment period (mated female Wistar rats; 1 and 3 mg/kg/day): slightly lower than the control
- clinical observations or necropsy findings related to treatment (mated female Wistar rats; [8]): no relevant unexpected clinical observations or necropsy findings
- deaths (mated female Wistar rats; [8]): no deaths
- group mean body weight over treatment period (mated female Wistar rats; [9]): Group mean body weight loss
- mean food intake over treatment period (mated female Wistar rats; [9]): marked reduction in mean food intake
- deaths (mated female Wistar rats; another study, 0.1, 0.3, 1, 3 and 10 mg/kg/day): no deaths
- maternal toxicity (mated female Wistar rats; dose level below 3 mg/kg/day): only slight maternal toxicity
- rats with ovulation inhibited ([1]; 0.03 mg/kg p.o. twice daily): did not inhibit ovulation
- rats with ovulation inhibited ([1]; 0.1 mg/kg p.o. twice daily): 2 of 8
- rats with ovulation inhibited ([1]; 0.3 mg/kg p.o. twice daily): 5 of 8
- rats with ovulation inhibited ([1]; 1.0 mg/kg p.o. twice daily): 7 of 8
- rats with ovulation inhibited ([1]; 3.0 mg/kg p.o. twice daily): 8 of 8
- ED50 [1, 7]: 0.204 mg/kg
- animals with decreased levels of inorganic phosphorus ([5]; 1 mg/kg, the day after dosing): 3 of 4
- adverse clinical sign ([5]; 1000 mg/kg oral, approximately 12 h after dosing): emesis in one E4-treated animal
- animals with decreased levels of inorganic phosphorus ([5]; after the 100 mg/kg dose): all E4-treated animals
- animals with decreased levels of inorganic phosphorus ([5]; after the 1000 mg/kg dose): all E4-treated animals
- tolerability of single oral treatment ([5]; doses up to 1000 mg/kg): well tolerated
- effects on body weight or haematological parameters [5, 10]: No effects
- gross necropsy [5, 10]: did not reveal any unusual findings
- liver parameters (AST, ALT) [5, 10]: no apparent test item- or dose-related findings
- maximum mean suppression of LH (plasma LH levels; 4 hours after dosing, 100 mg group shown in FIG. 2): 48%
- second LH trough (plasma LH levels; 12 hours after dosing, 100 mg group shown in FIG. 2): 45%
- inhibition of plasma LH levels (plasma LH levels; up to 48 hours after dosing): clear dose-dependent inhibition
- dosages that caused complete prevention of pregnancy [6]: > 0.03 mg/kg b.i.d.
- N corpora lutea, total number [6, 11]: 22
- N pregnancies, total number [6, 11]: 22
- N corpora lutea, total number [6, 12]: 22
- N pregnancies, total number [6, 12]: 21
- N corpora lutea, total number ([6]; 0.1 mg/kg twice daily, 3 animals per group): 20
- N corpora lutea, total number ([6]; 0.3 mg/kg twice daily, 3 animals per group): 20
- N corpora lutea, total number [6, 13]: 3
- N pregnancies, total number [6, 13]: 0
- oral doses that induce inhibition of ovulation ([6]; oral): > 0.3 mg/kg b.i.d.
